One data set in a line: Pharmacokinetics in dogs. The settings on record: for half-life: male. The procedure: (§1) The samples were centrifuged under refrigeration for at least 10 minutes at 3000 rpm and the plasma generated stored at −20° C. until LC-MS/MS analysis.
as §1
(§2) LC-MS/MS analysis utilized a Waters Acquity UPLC system paired with a Waters Quattro Premier XE tandem quadrupole mass spectrometer operating in ESI positive mode. Prior to injection, K3EDTA plasma samples were processed using a Phenomenex Strata X-A solid phase extraction (SPE) plate. All plasma samples were fortified with N-Maleoyl-β-alanine, mannitol, and acetic acid. Briefly, 50 μL of plasma diluted with 50 μL of internal standard solution and 500 μL 1000:4:1.5 water:ammonium hydroxide:formic acid was mixed and loaded onto a preconditioned Strata X-A SPE plate. Aqueous and organic washes were then applied followed by elution of all analytes with 300:200:7.5 methanol:water:formic acid. The samples were evaporated until approximately 30 μL remained in all wells and 30 μL of 9:1 water:ammonium hydroxide was then added. Finally, the plate was sealed, mixed, and centrifuged prior to transfer to the 2-8° C. Acquity autosampler. Note: During EC1669 analysis, EC0470 was converted to a hydrazone product for bioanalysis. Acetone (500 μL) was added to all samples after the first evaporation step followed by sealing all wells and heating at 50° C. for one hour. After this step, the acetone was evaporated and the extraction completed as described above.
(§3) A 10 μL sample volume was applied to the Waters BEH Shield RP18 100×2.1 mm, […] UPLC column operating at a flow rate of 0.4 mL/min while being maintained at 45° C. A gradient between mobile phase A (1000:4:1.5 water:ammonium hydroxide:formic acid) and mobile phase B (acetonitrile) was used to separate the analytes. The gradient was held at 2% B for the first 30 seconds of the chromatographic run followed by increasing to 20% B by 2.5 minutes. A rapid gradient from 60-90% B is then used to clean the column prior to equilibration at 2% B to complete the 4 minute run cycle.
(§4) For EC1669 MS/MS analysis, EC1669 and its known major metabolites, EC1886 and […], were optimized and monitored. […] In all cases, internal standard response was used to generate response ratios for each analyte. When calibrated, data was regressed using MassLynx 4.1 software. The table below lists transitions for analytes and internal standards monitored for LC-MS/MS bioanalysis.

Another data set can be described thus: in vivo. The procedure:
Each rat was used for collection of blood samples for a maximum of 4 time points. […] The samples were centrifuged for 3 minutes at 2000×g (Eppendorf 5417R centrifuge) to obtain plasma. The plasma samples were stored at −80° C. until LC-MS/MS analysis.
as §2, §3, §4

For data set [1], the system named is Rat adjuvant arthritis (AIA). Description: Rat adjuvant arthritis (AIA) treatment studies. The class given is in vivo. The procedure: Female Lewis rats (175-200 g) were purchased from Harlan Sprague Dawley (Indianapolis, Ind.) and allowed to acclimate for 1 week. Generally, rats were fed a folate-deficient diet (Harlan Teklad) for 9-10 days prior to arthritis induction.
Rat adjuvant arthritis (AIA) was induced by intradermal inoculation (at the base of tail) of 0.45-0.46 mg of heat-killed Mycobacteria butyricum (BD Diagnostic Systems, Sparks, Md.) in 100 μL light mineral oil (Sigma). […] During the course of disease development, animals were weighed at least 3 times a week. Paw edema (degree of arthritis) were scored 3 times a week as follows: 0=no edema or arthritis; 1=swelling in one type of joint; 2=swelling in two types of joint; 3=swelling in three types of joint; 4=swelling of the entire paw. A total score for each rat is calculated by adding up the scores for each of the four paws, giving a maximum of 16 per animal.
On the first day of treatment, rats with desired arthritis scores were distributed evenly across the control and treatment groups (n=5). […] All compounds and conjugates were administered subcutaneously (s.c.) starting 9 days after arthritis induction with biweekly (BIW, Mondays and Thursdays) or once-a-week (QW, Mondays) dosing for two consecutive weeks. At the completion of each study (˜4 days after the last treatment), rats were euthanized by CO2 asphyxiation and processed for paw weight (cut at the hairline) and spleen weight.
The rat AIA model resembles many characteristics of human rheumatoid arthritis and it is very aggressive. […] The animals in the AIA control group were left untreated.

[2] abbreviates: beagle, dog, in vivo, sc, 2.4 mg/kg.
Where [3] appears, read: female, Lewis, rat, in vivo, sc, 500 nmol/kg.
The mark [4] stands for this setting: beagle dog plasma, EC1669 dosed SC 2.4 mg/kg (1073 nmol/kg), N=4.
[5] abbreviates: rat plasma, EC1669 dosed SC 500 nmol/kg.

SMILES strings stand for the structures.

As usually defined, the AUC(0-t) is exposure summed from dosing to a finite time, without extrapolation to infinity. A word on the Cmax: it is the highest concentration seen after dosing. A word on the Tmax: it is the time from dosing to the highest level. Broadly, the half-life is how long it takes for the measured level to halve. Usually AUC(0-inf) stands for the area under the concentration-time curve extrapolated to infinity.

In “Pharmacokinetics in dogs” (beagle dog plasma, EC2319 dosed SC 2.43 mg/kg (1074 nmol/kg), N=2), `Nc1nc(N)c2nc(CNc3ccc(C(=O)N[C@@H](CCC(=O)O)C(=O)O)cc3)cnc2n1` [EC1886, aminopterin, reference compound] returned an AUClast of 0.157 µM·h. Further, in the data set “Pharmacokinetics in dogs” (setting [2]), the exposure AUC(0-t) is 0.0417 µM·h, the Cmax is 9.41 nM and the Tmax was 3.5 h. Further, in “Pharmacokinetics in dogs” (dogs, subcutaneous dosing), the “AUClast of aminopterin released, higher from EC2319 than from EC1669” value is listed as approximately 3.8 fold and the “Cmax of aminopterin released, higher from EC2319 than from EC1669” value is on record as approximately 2.6 fold. The half-life in the data set “Pharmacokinetics in dogs” (beagle, dog, in vivo, iv, 1 mg/kg) was 2 h. The half-life in “Pharmacokinetics in dogs” (beagle, dog, in vivo, sc, 2.43 mg/kg) was 2.74 h. In the data set “in vivo” (setting [3]), this compound showed an AUCinf of 0.0956 µM·h, an AUClast of 0.0947 µM·h and a half-life of 0.997 h. This compound displayed an AUC(0-inf) in “in vivo” (female, Lewis, rat, in vivo, sc, 500 nmol/kg, AUCinf) of 0.107 µM·h.

Take `COC(=O)[C@H](CSC1CC(=O)N(CCC(=O)O)C1=O)NC(=O)CC[C@H](NC(=O)c1ccc(NCc2cnc3nc(N)[nH]c(=N)c3n2)cc1)C(=O)O` (stereo partly shown) [EC2496]: the half-life in the data set “Pharmacokinetics in dogs” (beagle, dog, plasma, iv, 1 mg/kg) was 1.28 h; in “Pharmacokinetics in dogs” (beagle, dog, plasma, sc, 2.43 mg/kg) it was 2.14 h.

`N=c1[nH]c(N)nc2ncc(CNc3ccc(C(=O)N[C@@H](CCC(=O)NCCSSC[C@@H](NC(=O)[C@H](CCC(=O)NC[C@H](O)[C@@H](O)[C@H](O)[C@H](O)CO)NC(=O)[C@@H](CCC(=O)O)NC(=O)[C@H](CCC(=O)NC[C@H](O)[C@@H](O)[C@H](O)[C@H](O)CO)NC(=O)[C@@H](CCC(=O)O)NC(=O)[C@H](CCC(=O)NC[C@H](O)[C@@H](O)[C@H](O)[C@H](O)CO)NC(=O)CC[C@H](NC(=O)c4ccc(NCc5cnc6nc(N)[nH]c(=O)c6n5)cc4)C(=O)O)C(=O)O)C(=O)O)cc3)nc12` [EC2285]: in data set [1] (Study 2, 500 nmol/kg BIW plus 500-fold molar excess EC0923 (250 μmol/kg)), the “anti-arthritic activity with concurrent EC0923 (arthritis score, paw weight, spleen weight, body weight)” value is reported as “fully blocked by EC0923”.

For `NNC(=O)CC[C@H](NC(=O)c1ccc(NCc2cnc3nc(N)nc(N)c3n2)cc1)C(=O)O` [EC0470, aminopterin gamma-hydrazide], in the data set “Pharmacokinetics in dogs” (setting [4]), the AUClast was 0.51 µM·h, the Cmax is 66.5 nM, the Tmax is 3.25 h and the t1/2 turned out to be 4.38 h. Further, in the data set “in vivo” (setting [5]), the AUCinf was determined as 0.0659 µM·h, the AUClast was 0.0647 µM·h, the highest concentration (Cmax) came to 21.2 nM and the Tmax was determined as 1 h. In “in vivo” (setting [5]), this compound registered a t1/2 of 1.64 h.

As for `COC(=O)[C@H](CCCCNC(=O)[C@H](CCC(=O)NC[C@H](O)[C@@H](O)[C@H](O)[C@H](O)CO)NC(=O)[C@H](CCC(=O)O)NC(=O)[C@H](CCC(=O)NC[C@H](O)[C@@H](O)[C@H](O)[C@H](O)CO)NC(=O)[C@H](CCC(=O)O)NC(=O)[C@H](CCC(=O)NC[C@H](O)[C@@H](O)[C@H](O)[C@H](O)CO)NC(=O)CC[C@H](NC(=O)c1ccc(NCc2cnc3nc(N)[nH]c(=O)c3n2)cc1)C(=O)O)NC(=O)CC[C@H](NC(=O)c1ccc(NCc2cnc3nc(N)[nH]c(=N)c3n2)cc1)C(=O)O` [EC2413], in data set [1] (Study 3, 500 nmol/kg, BIW), the anti-arthritic activity entry is “significant anti-arthritic activity” and the body weight result is reported as “maintained a good body weight”. Moreover, the “decreasing arthritis score, paw weight, and spleen weight” value in data set [1] (Study 3, 500 nmol/kg, BIW, two consecutive weeks) was “inferior to both EC2319 and EC1669”. Moreover, in data set [1] (Study 3, 1000 nmol/kg (QW)), the “effectiveness in all parameters assessed” value is listed as “less effective than EC2413 dosed at 500 nmol/kg (BIW)”.

The values are drawn from patent US20180280528A1, “ANTIFOLATE CONJUGATES FOR TREATING INFLAMMATION” (ENDOCYTE, INC., priority 2015, published 2018).
